Laboratory results reported in publication PMC8292411 (British Journal of Cancer, 2021).
Entries after “also recorded” stand apart in the source; their conditions may differ. Where a name gives a salt, the structure may show the parent alone. Read-outs that look alike come from different tables or passages of the source.

Columns and labels:
advanced HCC [1] = details: Phase 3 Asia-Pacific sorafenib trial; cited from earlier work
[2] = system: advanced HCC with MET overexpression; assay: Phase 2 randomised efficacy, tepotinib vs sorafenib (TTP, PFS, OS, response; RECIST v1.1); assay type: in vivo, human; details: Phase 2, mITT
Source text: (§1) Patients in both phases continued to receive allocated therapy until disease progression, intolerable toxicity or withdrawal of consent.
(§2) In Phase 2, the primary endpoint was independent review committee (IRC)-assessed time to progression (TTP) per Response Evaluation Criteria in Solid Tumors (RECIST) v1.1. Secondary endpoints included investigator-assessed TTP, IRC- and investigator-assessed progression-free survival (PFS), objective response rate (ORR), disease control rate, OS and safety. In both phases, tumour assessments were performed according to RECIST v1.1 based on scans taken at the end of every second cycle until Cycle 13, and every four cycles thereafter.
(§3) In Phase 2, analyses were conducted according to randomised treatment assignment. […] In total, 100 TTP events were required to ensure 80% power (with a two-sided significance level of 10%) for rejecting the null hypothesis of equal treatment effect between treatment arms, assuming a true hazard ratio (HR) of 0.6. […] For the primary and secondary time-to-event endpoints, treatment groups were compared in the mITT population, applying a two-sided log-rank test, stratified by BCLC stage (α = 10%).

advanced HCC [3] = details: Phase 3 SHARP sorafenib trial; cited from earlier work
[4] = system: SACT-naive Asian patients with aHCC with MET overexpression; assay: Phase 2 safety (adverse events, NCI-CTCAE v4.0); details: for treatment-related AEs: ALT increased / treatment-related AEs: AST increased / treatment-related AEs: Alopecia / treatment-related AEs: Blood bilirubin increased / treatment-related AEs: Blood creatinine increased / treatment-related AEs: Diarrhoea / treatment-related AEs: Fatigue / treatment-related AEs: Hypertension / treatment-related AEs: Hypoalbuminaemia / treatment-related AEs: Oedema peripheral / treatment-related AEs: Overall / treatment-related AEs: PPES: Phase 2, safety analysis set
Experimental: as §1
DLTs are defined in Supplementary Table 3.
as §3

advanced HCC [5] = assay: Phase 1b tumour response per RECIST v1.1; assay type: in vivo, human; details: for duration of partial response: one patient
Experimental: as §2

[6] = Phase 1b pharmacokinetics, Cycle 1 Day 15; assay type: in vivo, human; details: for AUC / Cmax: human, in vivo, oral, Cycle 1 Day 15, geometric mean
Experimental: Secondary endpoints in Phase 1b included efficacy measures and pharmacokinetic parameters, such as Cmax and area under the concentration–time curve over the dosing interval at steady state (AUCτ,ss), which were evaluated at Cycle 1, Day 15.

[7] = system: Asian patients with advanced HCC; assay: Phase 1b dose escalation: DLTs and adverse events
Experimental: This was an open-label, multicentre, integrated, Phase 1b/2 trial conducted in Asian patients with advanced HCC (NCT01988493). […] Phase 1b was conducted at eight sites and Phase 2 at 43 sites in mainland China, South Korea and Taiwan.
Once three patients had completed one cycle at 500 mg, nine further patients were to be enrolled at this dose level to confirm the RP2D. […] The Safety Monitoring Committee (SMC) could also recommend enrolment of additional patients at or above the RP2D.
In Phase 1b, the primary endpoint was the incidence of investigator-assessed DLTs occurring in Cycle 1, as well as the incidence of other AEs (graded according to the National Cancer Institute Common Terminology and Criteria for Adverse Events, v4.0). […] Secondary endpoints in Phase 1b included efficacy measures and pharmacokinetic parameters, such as Cmax and area under the concentration–time curve over the dosing interval at steady state (AUCτ,ss), which were evaluated at Cycle 1, Day 15.

[8] = patients with moderate hepatic impairment (Child–Pugh B); cited from earlier work
MET = system: MET; parameters: method as in PMID 28862760; details: cited from earlier work
HCC with MET alterations = system: HCC with MET alterations; parameters: method as in PMID 31853265; details: 30 patients with HCC with MET alterations, first-line; cited from earlier work
[9] = Phase 1b, 500 mg dose, comparator ref 13
[10] = Phase 1b, across all dose cohorts

In the case of CNC(=O)c1cc(Oc2ccc(NC(=O)Nc3ccc(Cl)c(C(F)(F)F)c3)cc2)ccn1 [Sorafenib, sorafenib], the “median TTP” value (advanced HCC [1]) is given as 2.8 months, the “ORR by IRC” value [2] is given as 0% and the “median OS” value [2] is given as 8.6 months. For the same molecule, the “median PFS assessed by IRC” value [2] was 1.4 months, the “median investigator-assessed PFS” value [2] was 2.8 months and the “median investigator-assessed TTP” value [2] was 2.8 months. For the same molecule, the “Best overall response: Complete response” value ([2]; IRC) was 0 (0.0), the “Best overall response: Non-complete response/non-partial response” value ([2]; IRC) was 0 (0.0) and the “Best overall response: Partial response” value ([2]; IRC) was 0 (0.0). The “Best overall response: Progressive disease” value ([2]; IRC) was 25 (67.6), the “Best overall response: Stable disease” value ([2]; IRC) was 8 (21.6) and the Objective response rate ([2]; IRC) was 0 (0.0) n (%). The disease control ([2]; IRC) was 21.6%, the disease control rate ([2]; IRC) was 8 (21.6) n (%) and the “median IRC-assessed time to progression (TTP)” value ([2]; tepotinib 500 mg QD, sorafenib 400 mg twice daily) was 1.4 months. For the same molecule, the “median TTP” value (advanced HCC [3]) was 5.5 months, the “aspartate transaminase increase, any cause” value ([4]; Phase 2) was 36.4% and the deaths deemed treatment-related ([4]; Phase 2) was “neither were deemed treatment-related”. The “decreased appetite, any cause” value ([4]; Phase 2) was 40.9%, the “diarrhoea, any cause” value ([4]; Phase 2) was 38.6% and the “palmar–plantar erythrodysesthesia, any cause” value ([4]; Phase 2) was 61.4%. The “patients who died due to AEs while on treatment” value ([4]; Phase 2) was “Two”, the “patients with AEs of any cause” value ([4]; Phase 2) was 97.7% and the “patients with Grade ≥3 AEs of any cause” value ([4]; Phase 2) was 70.5%. For the same molecule, the “permanent treatment discontinuation due to AEs of any cause” value ([4]; Phase 2) was 13.6%, the treatment-related diarrhoea ([4]; Phase 2, any grade) was 31.8% and the “treatment-related palmar–plantar erythrodysesthesia” value ([4]; Phase 2, any grade) was 61.4%. The “treatment-related AEs: ALT increased” value ([4]; Any grade) was 7 (15.9) n (%), the “treatment-related AEs: AST increased” value ([4]; Any grade) was 10 (22.7) n (%) and the “treatment-related AEs: Alopecia” value ([4]; Any grade) was 10 (22.7) n (%). For the same molecule, the “treatment-related AEs: Blood bilirubin increased” value ([4]; Any grade) was 8 (18.2) n (%), the “treatment-related AEs: Blood creatinine increased” value ([4]; Any grade) was 0 (0.0) n (%) and the “treatment-related AEs: Diarrhoea” value ([4]; Any grade) was 14 (31.8) n (%). The “treatment-related AEs: Fatigue” value ([4]; Any grade) was 11 (25.0) n (%), the “treatment-related AEs: Hypertension” value ([4]; Any grade) was 11 (25.0) n (%) and the “treatment-related AEs: Hypoalbuminaemia” value ([4]; Any grade) was 2 (4.5) n (%). The “treatment-related AEs: Oedema peripheral” value ([4]; Any grade) was 0 (0.0) n (%), the “treatment-related AEs: Overall” value ([4]; Any grade) was 43 (97.7) n (%) and the “treatment-related AEs: PPES” value ([4]; Any grade) was 27 (61.4) n (%). For the same molecule, the “treatment-related AEs: ALT increased” value ([4]; Grade ≥ 3) was 0 (0.0) n (%), the “treatment-related AEs: AST increased” value ([4]; Grade ≥ 3) was 3 (6.8) n (%) and the “treatment-related AEs: Alopecia” value ([4]; Grade ≥ 3) was 0 (0.0) n (%). The “treatment-related AEs: Blood bilirubin increased” value ([4]; Grade ≥ 3) was 2 (4.5) n (%), the “treatment-related AEs: Blood creatinine increased” value ([4]; Grade ≥ 3) was 0 (0.0) n (%) and the “treatment-related AEs: Diarrhoea” value ([4]; Grade ≥ 3) was 3 (6.8) n (%). For the same molecule, the “treatment-related AEs: Fatigue” value ([4]; Grade ≥ 3) was 0 (0.0) n (%), the “treatment-related AEs: Hypertension” value ([4]; Grade ≥ 3) was 6 (13.6) n (%) and the “treatment-related AEs: Hypoalbuminaemia” value ([4]; Grade ≥ 3) was 0 (0.0) n (%). For the same molecule, the “treatment-related AEs: Oedema peripheral” value ([4]; Grade ≥ 3) was 0 (0.0) n (%), the “treatment-related AEs: Overall” value ([4]; Grade ≥ 3) was 20 (45.5) n (%) and the “treatment-related AEs: PPES” value ([4]; Grade ≥ 3) was 3 (6.8) n (%). For the same molecule, the “treatment-related AEs, Grade ≥3, overall” value ([4]; Phase 2, text) was 45.5% and the “treatment-related AEs, any grade, overall” value ([4]; Phase 2, text) was 97.7%.
With CN1CCC(COc2cnc(-c3cccc(Cn4nc(-c5cccc(C#N)c5)ccc4=O)c3)nc2)CC1 [Tepotinib, tepotinib hydrochloride hydrate] the “best overall response of progressive disease” value (advanced HCC [5]; Phase 1b, 300 mg cohort) was 85.7%, the “best overall response of stable disease” value (advanced HCC [5]; Phase 1b, 300 mg cohort) was 14.3% and the disease control rate (advanced HCC [5]; Phase 1b, 300 mg cohort) was 14.3%. For the same molecule, the “best overall response of progressive disease” value (advanced HCC [5]; Phase 1b, 500 mg cohort) was 35.7%, the “best overall response of stable disease” value (advanced HCC [5]; Phase 1b, 500 mg cohort) was 42.9% and the “objective response rate (ORR)” value (advanced HCC [5]; Phase 1b, 500 mg cohort) was 7.1%. The “duration of partial response” value (advanced HCC [5]; Phase 1b, 500 mg cohort) was 19 months, the “best overall response of progressive disease” value (advanced HCC [5]; Phase 1b, 1,000 mg cohort) was 50.0% and the “best overall response of stable disease” value (advanced HCC [5]; Phase 1b, 1,000 mg cohort) was 33.3%. The “objective response rate (ORR)” value (advanced HCC [5]; Phase 1b, 1,000 mg cohort) was 16.7%, the “duration of partial response” value (advanced HCC [5]; Phase 1b, 1,000 mg cohort) was 4.4 months and the “AUCτ as percentage of that observed in the first-in-human trial” value [6, 9] was 61%. For the same molecule, the “Cmax as percentage of that observed in the first-in-human trial” value [6, 9] was 63%, the AUC ([6]; 1000 mg, Phase 1b, 1,000 mg QD) was 28600 ng·h/mL and the Cmax ([6]; 1000 mg, Phase 1b, 1,000 mg QD) was 1370 ng/mL. It also gave an AUC ([6]; Phase 1b, 300 mg QD) of 11800 ng·h/mL, a Cmax ([6]; Phase 1b, 300 mg QD) of 585 ng/mL and an AUC ([6]; Phase 1b, 500 mg QD) of 16700 ng·h/mL. The Cmax ([6]; Phase 1b, 500 mg QD) was 815 ng/mL, the “dose-limiting toxicities (DLTs)” value ([7]; Phase 1b, 300, 500 or 1,000 mg QD, Cycle 1) was “no DLTs occurred; also recorded: No DLTs were observed; also recorded: no DLTs were reported” and the “treatment-related AEs, Grade ≥3” value [7, 10] was 33.3%. The “treatment-related AEs, any grade” value [7, 10] was 81.5%, the “patients with AEs of any cause” value ([7]; Phase 1b, n = 27) was “All patients” and the “lower AUC from time 0 to infinity versus control subjects without hepatic impairment” value [8] was 12%. The “lower Cmax versus control subjects without hepatic impairment” value [8] was 29%.
For COc1cc2nccc(Oc3ccc(NC(=O)C4(C(=O)Nc5ccc(F)cc5)CC4)cc3)c2cc1OC [cabozantinib], the “in vitro IC50 for MET inhibition” value (MET) is listed as “low nanomolar range”.
In the case of CNC(=O)c1ccc(-c2cnc3ncc(Cc4ccc5ncccc5c4)n3n2)cc1F [capmatinib], the ORR (HCC with MET alterations) is given as 10%.
In the case of O=C1NC(=O)[C@@H](c2cn3c4c(cccc24)CCC3)[C@@H]1c1c[nH]c2ccccc12 [tivantinib], the “affinity for the MET receptor” value (MET; relative to tepotinib, cabozantinib and capmatinib) is given as “lower affinity for the receptor”.
